Data as given in patent US20110112100A1, “Hepatitis C Virus Inhibitors” (priority 2009, published 2011).
Structures can show the parent of a compound that is named as a salt. Where two headings read alike, the source gives them in different places.

What was measured:
1a-H77 replicon cells = experiment: HCV 1a replicon inhibitory activity (Renilla luciferase); type: cell-based, hepatitis C virus; settings: Hepatitis C virus, read-out: IC50 value (95% Confidence Intervals) pM Replicon 1A assay
How it was run: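 Replicon cells in DMEM + 10% FCS incubated 48 hours at 37° C., 5% CO2 with 1-in-3 serial dilutions of compound prepared in DMSO. Replication read as Renilla luciferase luminescence after lysis. EC50 taken from log concentration-response curves.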

1b (con1) replicon cells = experiment: HCV 1b replicon inhibitory activity (luciferase, Britelite Plus); type: cell-based, hepatitis C virus; settings: Hepatitis C virus, read-out: IC50 value (95% Confidence Intervals) pM Replicon 1B assay
How it was run: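 1b (con1) luciferase replicon cells in DMEM + 10% FCS were exposed to 1-in-3 DMSO compound dilutions for 48 h at 37° C, 5% CO2. Luminescence was read 1-15 min after Britelite Plus addition; EC50 came from log concentration-response curves.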

[1] = Compound induced cytotoxicity in HCV replicon cell lines (WST-1 reagent); type: cell-based; settings: human, 1b (con1) HCV replicon cells; WST-1, 48 hours; in 1 experiment
Experimental: Test compounds were solubilised to 4 mM in 100% DMSO. Dilutions were made to the desired starting concentration in 100% DMSO and then 1 in 3 dilutions made, again in 100% DMSO. 0.5 μl of each sample was added to 384-well assay plates. White Lumitrac (Greiner) plates were used for the 1a and 1b replicon assays and black, clear bottomed (Greiner) plates were used for the WST-1 cytotoxity assay.
1b (con1) replicon cells were resuspended to a concentration of 1.4×10^5 cells/ml by addition of pre-warmed medium (DMEM+10% FCS). 50 μl of this suspension was added to each well of a 384-well assay plate (Black, clear bottomed, Greiner) already containing 0.5 μl of test compound.
All plates were covered with gas permeable seals and incubated at 37° C., 5% CO2 for 48 hours. After 48 hours, 5 μl WST-1 reagent (Roche, 11 644 807 001) was added to each well and the plate returned to the incubator for 3 hours. After this incubation period absorbance was read at 450 nm on an EnVision (Perkin Elmer) plate reader. The half maximal cytotoxic concentration (CC50) values were calculated for each compound by constructing log concentration-response curves.
All of the exemplified compounds have been screened in a cell proliferation assay (WST-1). A majority have […] in at least 2 independent experiments, the exceptions being the compounds of examples 1, 10, 12, 23, 25, 37, 47, 48, 49, 52, 56, 57, 58, 60, 67, 68, 69, 70, 71, 72, 73, 74, 79, 81 and 84 which have CC50 values>2 μM in 1 experiment, and example 20 where the CC50 is reported as >10 nM (in this instance the top concentration tested in the assay was 10 nM).

[2] = Plasma protein binding, Rapid Equilibrium Dialysis; type: in vitro ADME; settings: human plasma proteins
Experimental: Plasma binding free fractions (fu) were determined using a proprietary validated Rapid Equilibrium Dialysis (RED) device (Thermofisher). The analyte was spiked to a concentration of 2 μM in pre-prepared male CD rat plasma and 220 μl aliquots (n=4) were loaded into a RED device. The samples were dialysed vs. 350 μl of dulbeccos phosphate buffered saline (dPBS) for 4 h at 37° C. in a CO2 incubator in order to reach equilibrium. After 4 hours, 45 μl buffer and 15 μl plasma aliquots were taken and added to a 200 μl 384-well polypropylene plate. Respective volumes of control buffer were added to the plasma or control plasma was added to the buffer samples to give an identical matrix between samples. The samples were then crashed in 120 μl of acetonitrile and analysed via LC-MS/MS.
For highly bound compounds in the potency assay, which includes 10% foetal calf serum, measured potencies may not reflect real intrinsic potency due to a significant degree of compound binding.

[3] = geometric mean, 95% confidence intervals in parentheses, 48 hours, medium with 10% FCS

Compound	IC50 (1a-H77 replicon cells; [3]) [pM]	IC50 (1b (con1) replicon cells; [3]) [pM]	CC50 at 48 h [1] [nM]	fraction unbound at 4 h, 2 µM [2]	IC50 (1a-H77 replicon cells; 48 h) [pM]	IC50 (1b (con1) replicon cells; 48 h) [pM]
COC(=O)N[C@H](C(=O)N1CCC[C@H]1c1ncc(-c2ccc(-c3ncc4cc(-c5cnc([C@@H]6CCCN6C(=O)[C@@H](NC(=O)OC)C(C)C)[nH]5)ccc4n3)cc2)[nH]1)C(C)C [Example 1]	36	5.89	> 2000	0.0015		
COC(=O)N[C@H](C(=O)N1CCC[C@H]1c1ncc(-c2ccc(-c3ccc4cc(-c5cnc([C@@H]6CCCN6C(=O)[C@@H](NC(=O)OC)C(C)C)[nH]5)ccc4c3)cc2)[nH]1)C(C)C [Example 2, Methyl {(2S)-1-[(2S)-2-{5-[6-(4-{2-[(2S)-1-{(2S)-2-[(methoxycarbonyl)amino]-3-methyl-butanoyl}pyrrolidin-2-yl]-1H-imidazol-4-yl}phenyl)naphthalen-2-yl]-1H-imidazol-2-yl}pyrrolidin-1-yl]-3-methyl-1-oxobutan-2-yl}carbamate]	22.3	2.37		0.001		
COC(=O)N[C@H](C(=O)N1CCC[C@H]1c1nc(-c2ccc3nc(-c4ccc(-c5cnc([C@@H]6CCCN6C(=O)[C@@H](NC(=O)OC)C(C)C)[nH]5)cc4)ccc3c2)c[nH]1)C(C)C [Example 3, [(S)-1-((S)-2-{4-[2-(4-{2-[(S)-1-((S)-2-Methoxycarbonylamino-3-methyl-butyryl)-pyrrolidin-2-yl]-3H-imidazol-4-yl}-phenyl)-quinolin-6-yl]-1H-imidazol-2-yl}-pyrrolidine-1-carbonyl)-2-methyl-propyl]-carbamic acid methyl ester]	74.6	9.31		< 0.0015		
COC(=O)N[C@H](C(=O)N1CCC[C@H]1c1nc(-c2ccc(-c3cnc4cc(-c5cnc([C@@H]6CCCN6C(=O)[C@@H](NC(=O)OC)[C@@H](C)OC(C)(C)C)[nH]5)ccc4n3)cc2)c[nH]1)C(C)C [Example 74, Methyl {(2S)-1-[(2S)-2-{4-[4-(6-{2-[(2S)-1-{(2S,3R)-3-tert-butoxy-2-[(methoxycarbonyl)amino]butanoyl}pyrrolidin-2-yl]-1H-imidazol-5-yl}quinoxalin-2-yl)phenyl]-1H-imidazol-2-yl}pyrrolidin-1-yl]-3-methyl-1-oxobutan-2-yl)carbamate]	43.7	14.2	> 2000			
COC(=O)N[C@@H](CCc1ccccc1)C(=O)N1CCC[C@H]1c1ncc(-c2ccc3nc(-c4ccc(-c5c[nH]c([C@@H]6CCCN6C(=O)[C@@H](NC(=O)OC)C(C)C)n5)cc4)cnc3c2)[nH]1 [Example 79, Methyl {(2S)-1-[(2S)-2-{5-[2-(4-{2-[(2S)-1-{(2S)-2-[(methoxycarbonyl)amino]-3-methylbutanoyl}pyrrolidin-2-yl]-1H-imidazol-4-yl}phenyl)quinoxalin-6-yl]-1H-imidazol-2-yl]pyrrolidin-1-yl]-1-oxo-4-phenylbutan-2-yl}carbamate trifluoroacetic acid salt]			> 2000		47.6	11.7
COC(=O)N[C@H](C(=O)N1CCC[C@H]1c1nc(-c2ccc(-c3cnc4cc(-c5cnc([C@@H]6CCCN6C(=O)[C@H](NC(=O)OC)c6ccccc6)[nH]5)ccc4n3)cc2)c[nH]1)C(C)C [Example 84, Methyl {(2S)-1-[(2S)-2-{4-[4-(6-{2-[(2S)-1-{(2R)-2-[(methoxycarbonyl)amino]-2-phenylacetyl}pyrrolidin-2-yl]-1H-imidazol-5-yl}quinoxalin-2-yl)phenyl]-1H-imidazol-2-yl}pyrrolidin-1-yl]-3-methyl-1-oxobutan-2-yl}carbamate trifluoroacetic acid salt]			> 2000		19	10.9
